From the supplement of paper PMC11061612

What was measured:
Assay in all cases: combination Emax (second highest fraction inhibited in the dose matrix, 72 h); higher = more inhibition; extreme values may be limits of the assay
[1] = test system: MRK-nu-1 (Breast Carcinoma)
Summary of the method: (§1)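 Cell lines in DMEM/F12 or RPMI with 10% FBS were plated in 1536-well plates, held 24 hours at 37°C, 5% CO2, then given two-drug dose matrices for 72 hours (DMSO typically 0.2%). Viability was read by CellTiter-Glo 2.0 luminescence and scaled as inhibition from 0 (vehicle wells) to 1 (blank wells). Combination Emax is the second-highest inhibition in the matrix; Bliss excess is observed combination effect minus expected EA + EB − EA·EB, EA and EB being single-agent effects.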

[2] = test system: C2BBe1 (Colorectal Carcinoma)
Summary of the method: as §1

[3] = test system: HT-3 (Cervical Carcinoma)
Summary of the method: as §1

[4] = test system: CAL-85-1 (Breast Carcinoma)
Summary of the method: as §1

[5] = test system: SUP-HD1 (Hodgkin's Lymphoma)
Summary of the method: as §1

[6] = test system: OVKATE (Ovarian Carcinoma)
Summary of the method: as §1

[7] = test system: NCI-H2452 (Mesothelioma)
Summary of the method: as §1

[8] = test system: NTERA-2-cl-D1 (Other Solid Carcinomas)
Summary of the method: as §1

[9] = test system: BC-1 (B-Cell Non-Hodgkin's Lymphoma)
Summary of the method: as §1

[10] = test system: IGROV-1 (Ovarian Carcinoma)
Summary of the method: as §1

[11] = test system: MG-63 (Osteosarcoma)
Summary of the method: as §1

[12] = test system: SK-MEL-24 (Melanoma)
Summary of the method: as §1

[13] = test system: SW1463 (Colorectal Carcinoma)
Summary of the method: as §1

[14] = test system: COR-L105 (Lung Adenocarcinoma)
Summary of the method: as §1

[15] = test system: JURL-MK1 (Chronic Myelogenous Leukemia)
Summary of the method: as §1

[16] = test system: SBC-3 (Small Cell Lung Carcinoma)
Summary of the method: as §1

[17] = test system: RS4-11 (B-Lymphoblastic Leukemia)
Summary of the method: as §1

[18] = test system: SBC-5 (Small Cell Lung Carcinoma)
Summary of the method: as §1

[19] = test system: NCI-H835 (Other Solid Carcinomas)
Summary of the method: as §1

[20] = test system: NCI-H1435 (Non-Small Cell Lung Carcinoma)
Summary of the method: as §1

SMILES	combination Emax [1]	combination Emax [2]	combination Emax [3]	combination Emax [4]	combination Emax [5]	combination Emax [6]	combination Emax [7]	combination Emax [8]	combination Emax [9]	combination Emax [10]	combination Emax [11]	combination Emax [12]	combination Emax [13]	combination Emax [14]	combination Emax [15]	combination Emax [16]	combination Emax [17]	combination Emax [18]	combination Emax [19]	combination Emax [20]
COc1cccc(OCCCN)c1-c1cc(Nc2cnc(C#N)cn2)n[nH]1 [Prexasertib] + CN(C)CCCOc1ccc(-c2ccc3ncc4c(c3c2)n(C2CCOCC2)c(=O)n4C)cn1 [AZD0156] (first compound max 1 µM, 7x7, partner max 1 µM)	0.81	0.582	0.453	0.315	0.886	0.275	0.644	0.227	0.984	0.788	0.906	0.624	0.716	0.435	1	0.8	1	0.886	0.366	0.365
CCc1c2c(nc3ccc(O)cc13)-c1cc3c(c(=O)n1C2)COC(=O)[C@]3(O)CC [SN-38] + CN(C)CCCOc1ccc(-c2ccc3ncc4c(c3c2)n(C2CCOCC2)c(=O)n4C)cn1 [AZD0156] (first compound max 0.3 µM, 7x7, partner max 1 µM)	0.803	0.149	0.95	0.639	0.907	0.224	0.33	0.958	0.979	0.691	0.906	0.825	0.634	0.536	1	0.919	0.984	0.864	0.242	0.202
NC1(C(=O)N[C@@H](CCO)c2ccc(Cl)cc2)CCN(c2ncnc3[nH]ccc23)CC1 [Capivasertib] + CC(=O)c1c(C)c2cnc(Nc3ccc(N4CCNCC4)cn3)nc2n(C2CCCC2)c1=O [Palbociclib] (first compound max 10 µM, 7x7, partner max 10 µM)	0.382	0.314	0.2	0.203	0.569	0.265	0.474	0.294	0.928	0.86	0.712	0.654	0.502	0.362	1	0.67	0.605	0.353	0.426	0.244
CC(=O)c1c(C)c2cnc(Nc3ccc(N4CCNCC4)cn3)nc2n(C2CCCC2)c1=O [Palbociclib] + Cn1cnc2c(F)c(Nc3ccc(Br)cc3Cl)c(C(=O)NOCCO)cc21 [Selumetinib] (first compound max 10 µM, 7x7, partner max 10 µM)	0.438	0.379	0.138	0.387	0.445	0.219	0.331	0.249	0.91	0.782	0.431	0.654	0.646	0.403	1	0.744	0.488	0.251	0.133	0.147
COc1cccc2c1C(=O)c1c(O)c3c(c(O)c1C2=O)C[C@@](O)(C(=O)CO)C[C@@H]3O[C@H]1C[C@H](N)[C@H](O)[C@H](C)O1 [Doxorubicin] + Cc1cc2ncnn2cc1Nc1ncc2c(n1)n(C1CCOCC1)c(=O)n2C [AZD7648] (first compound max 1 µM, 7x7, partner max 10 µM)	0.695	0.242	0.781	0.634	0.878	0.282	0.462	1	1	0.611	0.896	0.725	0.196	0.473	1	0.968	0.977	0.77	0.516	0.198
Cn1cnc2c(F)c(Nc3ccc(Br)cc3Cl)c(C(=O)NOCCO)cc21 [Selumetinib] + C=CCn1c(=O)c2cnc(Nc3ccc(N4CCN(C)CC4)cc3)nc2n1-c1cccc(C(C)(C)O)n1 [AZD1775] (first compound max 10 µM, partner max 1 µM)	0.0295	0.569	0.195	0.474	0.727	0.173	0.547	0.271	0.993	0.848	0.394	0.68	0.665	0.534	1	0.269	0.979	0.514	0.512	0.209
